The target in series [1] is T1, IDE (Rattus norvegicus, UniProt P35559).
T1 sequence (P35559 1-1019): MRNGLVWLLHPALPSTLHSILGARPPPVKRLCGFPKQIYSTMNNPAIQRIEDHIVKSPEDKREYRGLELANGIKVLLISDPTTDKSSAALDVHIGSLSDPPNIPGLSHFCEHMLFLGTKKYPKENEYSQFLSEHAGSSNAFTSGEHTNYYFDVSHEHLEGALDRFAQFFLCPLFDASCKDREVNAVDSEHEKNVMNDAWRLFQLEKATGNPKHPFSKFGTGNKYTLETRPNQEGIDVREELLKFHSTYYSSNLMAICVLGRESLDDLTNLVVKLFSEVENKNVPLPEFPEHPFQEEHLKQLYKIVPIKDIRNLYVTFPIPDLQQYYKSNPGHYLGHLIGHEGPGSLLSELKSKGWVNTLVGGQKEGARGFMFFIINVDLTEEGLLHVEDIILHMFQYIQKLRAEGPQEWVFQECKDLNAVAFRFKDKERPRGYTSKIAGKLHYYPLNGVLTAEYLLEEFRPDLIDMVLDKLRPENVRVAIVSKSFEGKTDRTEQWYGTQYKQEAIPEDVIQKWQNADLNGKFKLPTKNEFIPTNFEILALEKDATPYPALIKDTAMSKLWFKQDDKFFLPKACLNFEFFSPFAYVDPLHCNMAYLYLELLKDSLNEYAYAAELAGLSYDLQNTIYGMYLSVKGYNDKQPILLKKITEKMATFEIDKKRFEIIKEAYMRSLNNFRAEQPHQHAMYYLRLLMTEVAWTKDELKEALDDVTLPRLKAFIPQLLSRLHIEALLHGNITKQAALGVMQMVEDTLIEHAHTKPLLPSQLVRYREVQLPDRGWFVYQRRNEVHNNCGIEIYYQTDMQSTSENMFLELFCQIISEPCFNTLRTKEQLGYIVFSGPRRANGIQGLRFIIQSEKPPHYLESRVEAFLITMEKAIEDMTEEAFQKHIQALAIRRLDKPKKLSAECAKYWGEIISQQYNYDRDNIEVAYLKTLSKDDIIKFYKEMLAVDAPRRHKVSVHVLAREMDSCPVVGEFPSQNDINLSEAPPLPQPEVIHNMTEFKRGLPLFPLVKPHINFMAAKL
Kind of series: IDE digestion of T40, SDS-PAGE and western blot with KD69. The following applies: 16 µM T40, 22 nM IDE, 37°C. As to the method:
(§1) 16 µM T40 was incubated with or without 22 nM IDE (37°C) and the reaction stopped as indicated. (B) Specificity of IDE activity. […] For (A) and (B), digestion products were resolved (10% Tris-Tricine SDS-PAGE), electro-blotted onto nitrocellulose and probed with KD69 (specific for the T40). Marker proteins are indicated. Arrows indicate the positions of T40 monomers and dimers. (C) 60 µM T40 was incubated with or without 50 nM IDE (37°C) and products separated by RP-HPLC (peaks annotated a–h). (D) Positions of IDE initial cleavages (arrows) within T40 (2 min digestion). (E) Identity of the major peptides (italics) and of CSR species in peaks a–h, analyzed by MS.
(§2) IDE and NEP (Merck, UK) digestions were at 37°C in 100 mM KHPO4/KH2PO4 buffer pH 7.5 (buffer A) or 100 mM Tris-HCl pH 7.4, 1% Triton X-100 (buffer B) respectively. 16 µM T40 was incubated with 22 nM IDE or 309 nM NEP, and 16 or 14.8 µM AChE586-599 oligomers with 16.3 nM IDE or 285 nM NEP. Reactions were stopped by boiling in a Laemmli's dissociation buffer with 100 mM DTT and subjected to SDS-PAGE (10% Tris-Tricine for T40 and 16.5% Tris-Tricine for AChE586-599 oligomers). […]
(In general: In western blotting, separated proteins are transferred to a membrane and probed.)

The subject of the next series is NEP. Kind of series: NEP digestion, products by RP-HPLC and MS. In kind it is in vitro ADME. To be noted: 37°C; for effect of NEP exposure on peptide level: 60 µM peptide, 1.2 µM NEP, 4 hours, 100 mM Tris-HCl pH 7.4, 1% Triton X-100, RP-HPLC. How it is done: Figure 4 NEP preferentially degrades monomeric forms of AChE586-599. (A) 60 µM of either substance P or T40 were incubated with or without 1.2 µM NEP (37°C, 4 hours) and the digestion mixture subjected to RP-HPLC. (B) Positions of NEP initial cleavages (arrows) within AChE586-599. (C) Cleavage map after complete NEP digestion of AChE586-599. 40 µM AChE586-599 was incubated with 772 nM NEP (30 min (B) or 4 hours (C), 37°C) and RP-HPLC peaks analyzed by MS. (D) NEP degrades AChE586-599 oligomers. […] Digestion products were analyzed as described in Figure 3C. Arrows indicate two digested AChE586-599 oligomers. (E) T40/IDE products are substrates for NEP. 60 µM T40 was incubated with 50 nM IDE (37°C, 30 min) and products separated by RP-HPLC. Peaks e–f (see Figure. 2C) were lyophilized, incubated with 772 nM NEP (37°C, 2 hours) and subjected to RP-HPLC.
60 µM substance P or T40 were incubated with or without 1.2 µM NEP (4 hours), stopped (0.5% trifluoroacetic acid) and subjected to RP-HPLC.

Series [2] has as its target T1, IDE. Kind of series: IDE digestion, products by RP-HPLC and MS. To be noted: 37°C. As to the method:
as §1
(A) Positions of IDE initial cleavages (arrows) within AChE586-599. […] 63 µM AChE586-599 was incubated with or without 45 nM IDE (A) or 273 nM IDE (B)(37°C, 30 min) and RP-HPLC peaks analyzed by MS. […] AChE586-599 oligomers (16 µM) cross-linked by photo-induced cross-linking were incubated with or without 16.3 nM IDE (37°C). Digestion products were resolved (16.5% Tris-Tricine SDS-PAGE), electro-blotted onto nitrocellulose and probed with Mab 105A (specific for AChE586-599 in β-sheet conformation). Marker proteins are indicated.
To identify degradation products, 60 µM T40 was incubated with 50 nM IDE; 63 µM AChE586-599 with 45 nM or 273 nM IDE; and 40 µM AChE586-599 with 772 nM NEP and separated by reverse phase-HPLC (RP-HPLC). Peaks were collected and identities determined on a Q-TOF Micro mass spectrometer (Micromass, UK) with MassLynx 4.0 and MaxEnt 3 software. Lyophilized HPLC separated T40/IDE products were used for surface tension and seeding experiments.
Reaction products were resolved by RP-HPLC with a Sephasil C4 column (5 µm, 4.6×250 mm; Amersham Biosciences, UK) using a 5–95% linear gradient of acetonitrile in 0.1% trifluoroacetic acid over 25 min (flow rate 1 ml/min). The eluent was monitored by UV absorption at 280 nm.

In the next series the test system is NEP (neprilysin), 772 nM. Kind of series: NEP in 100 mM Tris-HCl pH 7.4, 1% Triton X-100 (buffer B). To be noted: 37°C, up to 4 hours.
The test system of another series is IDE (insulysin), 45 nM. Kind of series: IDE in 100 mM KHPO4/KH2PO4 buffer pH 7.5 (buffer A). To be noted: 37°C, up to 30 min.
The next series has as its system NEP (neprilysin), 1.2 µM. Kind of series: NEP in 100 mM Tris-HCl pH 7.4, 1% Triton X-100 (buffer B). To be noted: 37°C, up to 4 hours.
Another series relates to IDE (insulysin), 50 nM. Kind of series: IDE in 100 mM KHPO4/KH2PO4 buffer pH 7.5 (buffer A). The following applies: 37°C, up to 2 hours.
The target in series [3] is T1, IDE. Kind of series: Specificity/inhibition of T40-degrading activity of IDE. The following applies: 16 µM T40, 22 nM IDE, 37°C, 90 min. In kind it is biochemical. More on the design: purchased Merck, UK. As to the method:
as §1, §2

Entries after “also recorded” stand apart in the source; their conditions may differ. Where a SMILES comes first, the peptide text is derived from it.

Consider `CSCC[C@H](NC(=O)[C@H](Cc1ccc(O)cc1)NC(=O)[C@H](CO)NC(=O)[C@H](CO)NC(=O)[C@H](Cc1c[nH]c2ccccc12)NC(=O)[C@H](CCCNC(=N)N)NC(=O)[C@H](Cc1c[nH]cn1)NC(=O)[C@H](Cc1ccccc1)NC(=O)[C@H](CCC(=O)O)NC(=O)[C@H](C)NC(=O)[C@H](CCCCN)NC(=O)[C@H](Cc1c[nH]c2ccccc12)NC(=O)[C@H](CCC(N)=O)NC(=O)[C@H](CCCNC(=N)N)NC(=O)[C@H](CCC(=O)O)NC(=O)[C@H](C)NC(=O)[C@H](CCC(=O)O)NC(=O)[C@H](CC(=O)O)NC(=O)[C@H](CC(C)C)NC(=O)[C@@H](NC(=O)[C@@H](N)CC(=O)O)[C@@H](C)O)C(=O)N[C@H](C(=O)N[C@@H](Cc1c[nH]cn1)C(=O)N[C@@H](Cc1c[nH]c2ccccc12)C(=O)N[C@@H](CCCCN)C(=O)N[C@@H](CC(N)=O)C(=O)N[C@@H](CCC(N)=O)C(=O)N[C@@H](Cc1ccccc1)C(=O)N[C@@H](CC(=O)O)C(=O)N[C@@H](Cc1c[nH]cn1)C(=O)N[C@@H](Cc1ccc(O)cc1)C(=O)N[C@@H](CO)C(=O)N[C@@H](CCCCN)C(=O)N[C@@H](CCC(N)=O)C(=O)N[C@@H](CC(=O)O)C(=O)N[C@@H](CCCNC(=N)N)C(=O)N[C@@H](CS)C(=O)N[C@@H](CO)C(=O)N[C@@H](CC(=O)O)C(=O)N[C@@H](CC(C)C)C(=O)O)C(C)C` [T40] (H-DTLDEAERQWKAEFHRWSSYMVHWKNQFDHYSKQDRCSDL-OH), for which the “incubation time for complete disappearance of monomeric T40 with IDE” value at IDE [1] (100 mM KHPO4/KH2PO4 buffer pH 7.5, western blot KD69) is recorded as at most 80 min. Also, the “fate of dimeric T40 with IDE” value at IDE [1] (buffer pH 7.5, up to 80 min, western blot KD69) is listed as “remained undigested”. Also, in the series with NEP, the “effect of NEP exposure on peptide level” value is given as “remained unchanged”. For the same compound, the “extent of T40 digestion by IDE at 30 min” value at IDE [2] (60 µM T40, 50 nM IDE, buffer pH 7.5, RP-HPLC C4, UV 280 nm) is given as “near complete digestion”.

Consider substance P [reference compound], for which the “effect of NEP exposure on peptide level” value in the series with NEP is recorded as “degradation”.

With AEFHRWSSYMVHWK, the cleaved bond entry with NEP (neprilysin), 772 nM is reported as “Ser8-Tyr9, first_seen, 30 min; also recorded: His12-Trp13, first_seen, 30 min; also recorded: H4-R5, first_seen, 30 min”; with IDE (insulysin), 45 nM, “Ser8-Tyr9, first_seen, 30 min; also recorded: His12-Trp13, first_seen, 30 min”.

As for `CSCC[C@H](NC(=O)[C@H](Cc1ccc(O)cc1)NC(=O)[C@H](CO)NC(=O)[C@H](CO)NC(=O)[C@H](Cc1c[nH]c2ccccc12)NC(=O)[C@H](CCCNC(=N)N)NC(=O)[C@H](Cc1c[nH]cn1)NC(=O)[C@H](Cc1ccccc1)NC(=O)[C@H](CCC(=O)O)NC(=O)[C@H](C)N)C(=O)N[C@H](C(=O)N[C@@H](Cc1c[nH]cn1)C(=O)N[C@@H](Cc1c[nH]c2ccccc12)C(=O)N[C@@H](CCCCN)C(=O)O)C(C)C` [AChE586-599] (H-AEFHRWSSYMVHWK-OH), the “time for complete digestion of AChE586-599 by NEP” value in the series with NEP (40 µM AChE586-599, 772 nM NEP, Tris-HCl pH 7.4, 1% Triton X-100, RP-HPLC/MS) was at most 4 h. The “degradation of AChE586-599 by IDE” value at IDE [2] (63 µM AChE586-599, 45 nM IDE, 30 min, buffer pH 7.5, RP-HPLC/MS) was “degraded”. Also, the “extent of AChE586-599 digestion by IDE” value on IDE [2] (63 µM AChE586-599, 273 nM IDE, 30 min, RP-HPLC/MS) was “complete IDE digestion”.

Take “DTLDEAERQWKAEFHRWSSYMVHWKNQFDHYSKQDRCSDL”: the not cleaved entry in the series on NEP (neprilysin), 1.2 µM is “levels remained unchanged after exposure to NEP (4 hours)”. Also, the cleaved bond result in the series on IDE (insulysin), 50 nM is on record as “Phe14-His15, first_seen, 2 min; also recorded: Ser19-Tyr20, first_seen, 2 min; also recorded: Trp24-Lys25, first_seen, 2 min”.

In the case of insulin, on IDE [3] (western blot, equimolar to T40), the “concentration giving complete inhibition of IDE degradation of T40” value amounted to 16 µM. The “inhibition of IDE degradation of T40” value at IDE [3] (insulin or IgG 2–16 µM, 1,10-phenanthroline 1 and 10 mM) is listed as “dose dependent inhibition”.

The values are drawn from PMC1920558 (PLoS ONE, 2007).
